According to BigSolDB 2.1:

CC(C)(Oc1ccc(C2CC2(Cl)Cl)cc1)C(=O)O (stereo not given)
solubility (mole fraction)
Conditions | 278.15 K | 283.15 K | 288.15 K | 293.15 K | 298.15 K | 303.15 K | 308.15 K | 313.15 K | 318.15 K | 323.15 K
in DMF | 0.218 | 0.236 | 0.257 | 0.277 | 0.296 | 0.319 | 0.342 | 0.365 | 0.385 | 0.407
in ethanol | 0.156 | 0.171 | 0.187 | 0.203 | 0.219 | 0.239 | 0.259 | 0.277 | 0.294 | 0.312
in ethylene glycol | 0.0348 | 0.0395 | 0.044 | 0.0486 | 0.053 | 0.0592 | 0.0652 | 0.0711 | 0.077 | 0.0823
in n-propanol | 0.0758 | 0.0854 | 0.0948 | 0.104 | 0.113 | 0.125 | 0.137 | 0.148 | 0.159 | 0.169
in water | 5.95e-07 | 7.63e-07 | 9.11e-07 | 1.1e-06 | 1.31e-06 | 1.54e-06 | 1.77e-06 | 2.05e-06 | 2.33e-06 | 2.65e-06
